For 10 compounds, Activity, inhibition and IC50 results are on record in ChEMBL document CHEMBL4840373, “Aureonitol Analogues and Orsellinic Acid Esters Isolated from Chaetomium elatum and Their Antineuroinflammatory Activity” (J Nat Prod, 2021).

A word on the IC50: it is the concentration needed to halve the response being measured.

The subject of data set [1] is BV-2. The data set is described as follows: Cytotoxicity against mouse BV-2 cells assessed as reduction in cell viability at 120 uM after 24 hrs by MTT assay. The class given is cell-based. To be noted: bv-2, 24 h.
In data set [2] the test system is BV-2. The data set can be described thus: Antiinflammatory activity in mouse BV-2 cells assessed as inhibition of LPS-induced NO production at 15 uM pretreated with compound for 1 hr followed by LPS stimulation for 24 hrs by Griess reagent based assay. To be noted: time 25.0 hrs. The class given is functional, cell-based.
Data set [3] deals with T1, Inhibitor of nuclear factor kappa-B kinase subunit beta (Mus musculus) (UniProt O88351).
T1 sequence (whole entry): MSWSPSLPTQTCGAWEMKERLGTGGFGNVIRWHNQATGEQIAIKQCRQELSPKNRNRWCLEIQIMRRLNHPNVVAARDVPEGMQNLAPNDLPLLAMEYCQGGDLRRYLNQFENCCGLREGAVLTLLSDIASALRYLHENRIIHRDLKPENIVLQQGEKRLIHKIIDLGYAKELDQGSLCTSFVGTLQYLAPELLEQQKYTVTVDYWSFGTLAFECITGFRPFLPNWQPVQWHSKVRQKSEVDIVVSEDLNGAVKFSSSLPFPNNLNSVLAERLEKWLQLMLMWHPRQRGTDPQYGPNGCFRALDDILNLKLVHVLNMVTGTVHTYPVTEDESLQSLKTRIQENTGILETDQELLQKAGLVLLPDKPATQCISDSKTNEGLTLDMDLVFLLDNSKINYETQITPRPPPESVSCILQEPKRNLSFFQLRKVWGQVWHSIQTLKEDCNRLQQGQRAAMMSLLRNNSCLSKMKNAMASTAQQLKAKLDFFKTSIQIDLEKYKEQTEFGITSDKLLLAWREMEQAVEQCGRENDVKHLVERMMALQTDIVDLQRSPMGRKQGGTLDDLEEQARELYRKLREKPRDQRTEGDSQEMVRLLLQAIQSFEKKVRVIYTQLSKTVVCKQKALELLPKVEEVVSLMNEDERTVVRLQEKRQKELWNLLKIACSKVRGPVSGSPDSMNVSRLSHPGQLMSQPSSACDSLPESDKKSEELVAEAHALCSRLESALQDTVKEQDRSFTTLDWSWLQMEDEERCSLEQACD
The data set can be described thus: Inhibition of IKappaB phosphorylation in LPS-stimulated mouse BV-2 cells at 15 to 60 uM pretreated with compound for 1 hr followed by LPS stimulation for 24 hrs by Western blot analysis. The class given is cell-based. The conditions noted are these: dose 15-60 µM, time 25.0 hrs.

For data set [4], the target named is MAP kinase p38 (Mus musculus) (UniProt P47811+O08911+Q9WUI1+Q9Z1B7). The data set is described as follows: Inhibition of p38 phosphorylation in LPS-stimulated mouse BV-2 cells at 15 to 60 uM pretreated with compound for 1 hr followed by LPS stimulation for 24 hrs by Western blot analysis. The format is cell-based. To be noted: dose 15-60 µM, time 25.0 hrs. A general note: In western blotting, separated proteins are transferred to a membrane and probed.

Data set [5] deals with BV-2. The data set can be described thus: Antiinflammatory activity against mouse BV-2 cells assessed as inhibition of LPS-induced TNFalpha production at 15 to 60 uM pretreated with compound for 1 hr followed by LPS stimulation for 24 hrs by ELISA. The class given is functional, cell-based. The conditions noted are these: dose 15-60 µM, time 25.0 hrs.
Data set [6] concerns BV-2. The data set is described as follows: Antiinflammatory activity against LPS-induced mouse BV-2 cells assessed as inhibition of NFkB protein expression at 15 to 60 uM pretreated with compound for 1 hr followed by LPS stimulation after 24 hrs by Western blot analysis. The format is functional, cell-based. The conditions noted are these: dose 15-60 µM, time 25.0 hrs.
The subject of data set [7] is BV-2. The data set can be described thus: Antiinflammatory activity against LPS-induced mouse BV-2 cells assessed as decrease in iNOS protein expression at 15 to 60 uM pretreated with compound for 1 hr followed by LPS stimulation after 24 hrs by Western blot analysis. To be noted: dose 15-60 µM, time 25.0 hrs. The class given is functional, cell-based.
In data set [8] the test system is BV-2. The data set can be described thus: Antiinflammatory activity against mouse BV-2 cells assessed as inhibition of LPS-induced ROS production at 15 to 60 uM pretreated with compound for 1 hr followed by LPS stimulation for 24 hrs by DCFH-DA staining based fluorescence microscopy. To be noted: dose 15-60 µM, time 25.0 hrs. The format is functional, cell-based.

Data set [9] relates to BV-2. The data set can be described thus: Antiinflammatory activity against LPS-induced mouse BV-2 cells assessed as decrease in COX2 protein expression at 15 to 60 uM pretreated with compound for 1 hr followed by LPS stimulation after 24 hrs by Western blot analysis. The format is functional, cell-based. To be noted: dose 15-60 µM, time 25.0 hrs.
The test system of data set [10] is BV-2. The data set can be described thus: Antiinflammatory activity against LPS-induced mouse BV-2 cells assessed as inhibition of TLR-4 protein expression at 15 to 60 uM pretreated with compound for 1 hr followed by LPS stimulation after 24 hrs by Western blot analysis. The class given is functional, cell-based. To be noted: dose 15-60 µM, time 25.0 hrs.
For data set [11], the system named is BV-2. The data set can be described thus: Antiinflammatory activity against mouse BV-2 cells assessed as inhibition of LPS-induced IL-1beta production at 15 to 60 uM pretreated with compound for 1 hr followed by LPS stimulation for 24 hrs by ELISA. The class given is functional, cell-based. To be noted: dose 15-60 µM, time 25.0 hrs. (In general: An ELISA detects its analyte on a solid surface through an enzyme-linked reagent.)

The test system of data set [12] is BV-2. The data set is described as follows: Antiinflammatory activity in mouse BV-2 cells assessed as inhibition of LPS-induced NO production pretreated with compound for 1 hr followed by LPS stimulation for 24 hrs by Griess reagent based assay. The class given is functional, cell-based.
Data set [13] relates to BV-2. The data set is described as follows: Antiinflammatory activity against mouse BV-2 cells assessed as inhibition of LPS-induced IL-6 production at 15 to 60 uM pretreated with compound for 1 hr followed by LPS stimulation for 24 hrs by ELISA. The format is functional, cell-based. The conditions noted are these: dose 15-60 µM, time 25.0 hrs.

SMILES strings stand for the structures. Calls of active or inactive are those of the source. The rule behind the calls is not given here.

Consider `C/C=C/C=C/[C@H]1CO[C@@H](/C=C/[C@@H](O)CO)[C@@H]1O`, for which the Activity result in data set [1] is listed as “Non-Toxic”. For the same compound, the inhibition result in data set [2] is “Active”.

For `C=C/C=C/[C@@H]1OC[C@H](/C=C/C=C/C)[C@H]1O`, the Activity result in data set [1] is reported as “Non-Toxic”.

Regarding `C/C=C/C=C/[C@H]1CO[C@@H](/C=C/[C@H](O)CO)[C@@H]1O`, the inhibition entry in data set [3], in data set [4], in [6] and in data set [10] was “Active” in each case. In addition, the outcome in data set [5], in data set [7], in data set [8], in data set [9], in [11] and in [13] was Active. Moreover, the Activity entry in [1] is reported as “Non-Toxic”. The IC50 in data set [12] was found to be 16.6 µM.

On to `Cc1cc(O)cc(O)c1C(=O)OC[C@@]1(C[C@@H](C)O)C[C@@H](O)C(=O)O1`, for which the Activity result in data set [1] is recorded as “Non-Toxic”.

For `C=C/C=C/[C@@H]1OC[C@H](/C=C/[C@@H](O)[C@H](C)O)[C@H]1O`, the Activity entry in data set [1] was “Non-Toxic”.

Regarding `C=C/C=C/[C@@H]1OC[C@@H](/C=C/C=C/C)[C@@H]1O`, the Activity entry in [1] is on record as “Non-Toxic”.

Regarding `C=C/C=C/[C@H]1OC[C@@H]([C@@H](O)/C=C/[C@@H](C)O)[C@@H]1O`, the Activity result in [1] is “Non-Toxic”. The inhibition entry in [2] was “Active”.

In the case of `Cc1cc(O)cc(O)c1C(=O)OCC(=O)[C@@H](O)[C@H](C)O` [GLOBOSUMONE C], in data set [1], the Activity result is given as “Non-Toxic”.

As to `C=C/C=C/[C@@H]1OC[C@H](/C=C/C[C@H](C)O)[C@H]1O`, in data set [1], the Activity entry is recorded as “Non-Toxic”. Also, in data set [2], the inhibition result is “Active”.

Consider `C=C/C=C/[C@@H]1OC[C@H](/C=C/[C@@H](O)[C@@H](C)O)[C@H]1O`, for which the Activity result in [1] was “Non-Toxic”.
